Data from patent US11498899B2, “Nitrone herbicides” (FMC Corporation, priority 2016, dated 2022).

What was measured:
[1] = system: rice (Oryza sativa); test: Test B flooded paddy test, visual rating 0-100 (0 no effect, 100 complete control); conditions: Flood, 250 g ai/ha, applied to paddy water, rated after 13 to 15 days
[2] = system: barnyardgrass (Echinochloa crus-galli); test: Test A preemergence, visual injury rating 0-100 (0 no effect, 100 complete control); assay type: in vivo
[3] = system: ragweed (common ragweed, Ambrosia elatior); test: Test A postemergence, visual injury rating 0-100; assay type: in vivo; conditions: 0 to 100 scale
[4] = system: foxtail, giant (giant foxtail, Setaria faberii); test: Test A postemergence, visual injury rating 0-100; assay type: in vivo; conditions: 0 to 100 scale
[5] = system: ryegrass, Italian (Italian ryegrass, Lolium multiflorum); test: Test A postemergence, visual injury rating 0-100; assay type: in vivo; conditions: 0 to 100 scale
[6] = system: wheat (Triticum aestivum); test: Test A postemergence, visual injury rating 0-100; assay type: in vivo; conditions: 0 to 100 scale
[7] = system: corn (Zea mays); test: Test A postemergence, visual injury rating 0-100; assay type: in vivo; conditions: 0 to 100 scale
[8] = system: barnyardgrass (Echinochloa crus-galli); test: Test A postemergence, visual injury rating 0-100; assay type: in vivo; conditions: 0 to 100 scale
[9] = system: blackgrass (Alopecurus myosuroides); test: Test A postemergence, visual injury rating 0-100; assay type: in vivo; conditions: 0 to 100 scale
[10] = system: galium (catchweed bedstraw, Galium aparine); test: Test A postemergence, visual injury rating 0-100; assay type: in vivo; conditions: 0 to 100 scale
[11] = system: pigweed (Amaranthus retroflexus); test: Test A postemergence, visual injury rating 0-100; assay type: in vivo; conditions: 0 to 100 scale
[12] = system: kochia (Kochia scoparia); test: Test A postemergence, visual injury rating 0-100; assay type: in vivo; conditions: 0 to 100 scale
[13] = system: ducksalad (Heteranthera limosa); test: Test B flooded paddy test, visual rating 0-100; conditions: Flood, 250 g ai/ha, applied to paddy water, rated after 13 to 15 days
[14] = system: ragweed (common ragweed, Ambrosia elatior); test: Test A preemergence, visual injury rating 0-100; assay type: in vivo
[15] = system: foxtail, giant (giant foxtail, Setaria faberii); test: Test A preemergence, visual injury rating 0-100; assay type: in vivo
[16] = system: ryegrass, Italian (Italian ryegrass, Lolium multiflorum); test: Test A preemergence, visual injury rating 0-100; assay type: in vivo
[17] = system: pigweed (Amaranthus retroflexus); test: Test A preemergence, visual injury rating 0-100; assay type: in vivo
[18] = system: kochia (Kochia scoparia); test: Test A preemergence, visual injury rating 0-100; assay type: in vivo
[19] = system: barnyardgrass (Echinochloa crus-galli); test: Test B flooded paddy test, visual rating 0-100; conditions: Flood, 250 g ai/ha, applied to paddy water, rated after 13 to 15 days
[20] = 125 g ai/ha, 0 to 100 scale (0 no effect, 100 complete control), approx. 10 days

| Structure (SMILES) | Rice plant response rating (0 to 100 scale) [1] | Ragweed plant response rating ([3]; 125 g ai/ha) | Ragweed plant response rating ([3]; 500 g ai/ha) | Foxtail, Giant plant response rating ([4]; 125 g ai/ha) | Foxtail, Giant plant response rating ([4]; 500 g ai/ha) | Ryegrass, Italian plant response rating ([5]; 125 g ai/ha) | Ryegrass, Italian plant response rating ([5]; 500 g ai/ha) | Wheat plant response rating ([6]; 125 g ai/ha) | Wheat plant response rating ([6]; 500 g ai/ha) | Corn plant response rating ([7]; 125 g ai/ha) | Corn plant response rating ([7]; 500 g ai/ha) | Barnyardgrass plant response rating ([8]; 125 g ai/ha) | Barnyardgrass plant response rating ([8]; 500 g ai/ha) | Blackgrass plant response rating ([9]; 125 g ai/ha) | Blackgrass plant response rating ([9]; 500 g ai/ha) | Galium plant response rating ([10]; 125 g ai/ha) | Galium plant response rating ([10]; 500 g ai/ha) | Pigweed plant response rating ([11]; 125 g ai/ha) | Pigweed plant response rating ([11]; 500 g ai/ha) | Kochia plant response rating ([12]; 125 g ai/ha) | other results |
| --- | --- | --- | --- | --- | --- | --- | --- | --- | --- | --- | --- | --- | --- | --- | --- | --- | --- | --- | --- | --- | --- |
| CC1=[N+]([O-])[C@@H](C(=O)Nc2cccc(F)c2F)[C@H](c2ccc(C(F)(F)F)cc2)C1 (relative stereo) [Compound 2, trans-N-(2,3-difluorophenyl)-3,4-dihydro-5-methyl-3-[4-(trifluoromethyl)phenyl]-2H-pyrrole-2-carboxamide 1-oxide] | 0 | 30 | 60 | 90 | 90 | 60 | 70 | 40 | 70 | 40 | 80 | 70 | 90 | 20 | 90 | 70 | 70 | 40 | 80 | 40 | Barnyardgrass plant response rating (0 to 100 scale) ([2]; 125 g ai/ha): 90; Barnyardgrass plant response rating ([2]; 500 g ai/ha, 0 to 100 scale): 100; Kochia plant response rating ([12]; 500 g ai/ha): 80; Ducksalad plant response rating (0 to 100 scale) [13]: 90; Ragweed plant response rating (0 to 100 scale) ([14]; 125 g ai/ha): 40; Ragweed plant response rating ([14]; 500 g ai/ha, 0 to 100 scale): 90; Foxtail, Giant plant response rating (0 to 100 scale) ([15]; 125 g ai/ha): 100; Foxtail, Giant plant response rating ([15]; 500 g ai/ha, 0 to 100 scale): 100; Ryegrass, Italian plant response rating (0 to 100 scale) ([16]; 125 g ai/ha): 30; Ryegrass, Italian plant response rating ([16]; 500 g ai/ha, 0 to 100 scale): 50; Pigweed plant response rating (0 to 100 scale) ([17]; 125 g ai/ha): 90; Pigweed plant response rating ([17]; 500 g ai/ha, 0 to 100 scale): 90; Kochia plant response rating (0 to 100 scale) ([18]; 125 g ai/ha): 90; Kochia plant response rating ([18]; 500 g ai/ha, 0 to 100 scale): 80; Barnyardgrass plant response rating (0 to 100 scale) [19]: 70 |
| CC1=[N+]([O-])C(C(=O)Nc2cccc(F)c2F)C(c2ccc(Br)cn2)C1 (racemic) [Compound 66] | 15 | 0 | 0 | 0 | 0 | 0 | 0 | 0 | 0 | 0 | 0 | 0 | 0 | 0 | 0 | 0 | 0 | 0 | 0 | 0 | Barnyardgrass plant response rating (0 to 100 scale) ([2]; 125 g ai/ha): 0; Barnyardgrass plant response rating (0 to 100 scale) ([2]; 500 g ai/ha): 20; Kochia plant response rating ([12]; 500 g ai/ha): 0; Ducksalad plant response rating (0 to 100 scale) [13]: 75; Ragweed plant response rating (0 to 100 scale) ([14]; 125 g ai/ha): 0; Ragweed plant response rating (0 to 100 scale) ([14]; 500 g ai/ha): 0; Foxtail, Giant plant response rating (0 to 100 scale) ([15]; 125 g ai/ha): 10; Foxtail, Giant plant response rating (0 to 100 scale) ([15]; 500 g ai/ha): 70; Ryegrass, Italian plant response rating (0 to 100 scale) ([16]; 125 g ai/ha): 0; Ryegrass, Italian plant response rating (0 to 100 scale) ([16]; 500 g ai/ha): 0; Pigweed plant response rating (0 to 100 scale) ([17]; 125 g ai/ha): 0; Pigweed plant response rating (0 to 100 scale) ([17]; 500 g ai/ha): 0; Kochia plant response rating (0 to 100 scale) ([18]; 125 g ai/ha): 0; Kochia plant response rating (0 to 100 scale) ([18]; 500 g ai/ha): 0; Barnyardgrass plant response rating (0 to 100 scale) [19]: 35 |
| CC1=[N+]([O-])C(C(=O)Nc2cccc(F)c2F)C(c2ccc(F)c(F)c2)C1 (racemic) [Compound 10] | 0 | 0 | 20 | 60 | 90 | 0 | 0 | 0 | 70 | 0 | 50 | 40 | 90 | 20 | 30 | 50 | 60 | 0 | 20 | 0 | Barnyardgrass plant response rating (0 to 100 scale) ([2]; 125 g ai/ha): 90; Barnyardgrass plant response rating ([2]; 500 g ai/ha, 0 to 100 scale): 90; Kochia plant response rating ([12]; 500 g ai/ha): 20; Ducksalad plant response rating (0 to 100 scale) [13]: 100; Ragweed plant response rating (0 to 100 scale) ([14]; 125 g ai/ha): 0; Ragweed plant response rating ([14]; 500 g ai/ha, 0 to 100 scale): 90; Foxtail, Giant plant response rating (0 to 100 scale) ([15]; 125 g ai/ha): 80; Foxtail, Giant plant response rating ([15]; 500 g ai/ha, 0 to 100 scale): 90; Ryegrass, Italian plant response rating (0 to 100 scale) ([16]; 125 g ai/ha): 0; Ryegrass, Italian plant response rating ([16]; 500 g ai/ha, 0 to 100 scale): 60; Pigweed plant response rating (0 to 100 scale) ([17]; 125 g ai/ha): 50; Pigweed plant response rating ([17]; 500 g ai/ha, 0 to 100 scale): 60; Kochia plant response rating (0 to 100 scale) ([18]; 125 g ai/ha): 0; Kochia plant response rating ([18]; 500 g ai/ha, 0 to 100 scale): 60; Barnyardgrass plant response rating (0 to 100 scale) [19]: 85 |
| CC1=[N+]([O-])C(C(=O)Nc2cccc(F)c2F)C(c2cc(C)n(Cc3ccc(Cl)cc3)c(=O)c2)C1 (racemic) [Compound 86] | 0 | 0 | 0 | 0 | 0 | 0 | 0 | 0 | 0 | 0 | 10 | 0 | 0 | 0 | 0 | 0 | 0 | 0 | 0 | 0 | Barnyardgrass plant response rating (0 to 100 scale) ([2]; 125 g ai/ha): 0; Barnyardgrass plant response rating (0 to 100 scale) ([2]; 500 g ai/ha): 0; Kochia plant response rating ([12]; 500 g ai/ha): 0; Ducksalad plant response rating (0 to 100 scale) [13]: 0; Ragweed plant response rating (0 to 100 scale) ([14]; 125 g ai/ha): 0; Ragweed plant response rating (0 to 100 scale) ([14]; 500 g ai/ha): 0; Foxtail, Giant plant response rating (0 to 100 scale) ([15]; 125 g ai/ha): 0; Foxtail, Giant plant response rating (0 to 100 scale) ([15]; 500 g ai/ha): 0; Ryegrass, Italian plant response rating (0 to 100 scale) ([16]; 125 g ai/ha): 0; Ryegrass, Italian plant response rating (0 to 100 scale) ([16]; 500 g ai/ha): 0; Pigweed plant response rating (0 to 100 scale) ([17]; 125 g ai/ha): 0; Pigweed plant response rating (0 to 100 scale) ([17]; 500 g ai/ha): 0; Kochia plant response rating (0 to 100 scale) ([18]; 125 g ai/ha): 0; Kochia plant response rating (0 to 100 scale) ([18]; 500 g ai/ha): 0; Barnyardgrass plant response rating (0 to 100 scale) [19]: 0 |
| CC1=[N+]([O-])C(C(=O)Nc2cccc(F)c2F)C(c2cccc3c2CCC3)C1 (racemic) [Compound 118] | 15 | 0 | 70 | 50 | 90 | 50 | 90 | 40 | 80 | 70 | 80 | 60 | 80 | 50 | 70 | 50 | 50 | 0 | 30 | 50 | Barnyardgrass plant response rating [2, 20]: 90; Barnyardgrass plant response rating (0 to 100 scale) ([2]; 500 g ai/ha): 100; Kochia plant response rating ([12]; 500 g ai/ha): 60; Ducksalad plant response rating (0 to 100 scale) [13]: 90; Ragweed plant response rating [14, 20]: 70; Ragweed plant response rating (0 to 100 scale) ([14]; 500 g ai/ha): 90; Foxtail, Giant plant response rating [15, 20]: 90; Foxtail, Giant plant response rating (0 to 100 scale) ([15]; 500 g ai/ha): 100; Ryegrass, Italian plant response rating [16, 20]: 90; Ryegrass, Italian plant response rating (0 to 100 scale) ([16]; 500 g ai/ha): 100; Pigweed plant response rating [17, 20]: 40; Pigweed plant response rating (0 to 100 scale) ([17]; 500 g ai/ha): 80; Kochia plant response rating [18, 20]: 20; Kochia plant response rating (0 to 100 scale) ([18]; 500 g ai/ha): 80; Barnyardgrass plant response rating (0 to 100 scale) [19]: 95 |
